# Test results from article PMC8776995 (Frontiers in Chemistry, 2022).
# Where “and” joins values, the source holds several entries; their conditions need not be identical. Equal entries are not always repeated. Where two headings read alike, the source gives them in different places.
# Experiments:
# [1] = tested on: AKT phosphorylation (S473) in PC-9 cells; test: Western blot, p-AKT/AKT in PC-9; details: for p-AKT/AKT: band density ratio; for p-AKT/AKT relative to DMSO: ratio normalised to DMSO = 1
# Protocol: (§1) We also performed western blot analysis to evaluate the impact of e4 and e12 on EGFR signaling in PC-9 and H460 cells.
# (§2) H460 cells were seeded in six-well plates with serum-free medium overnight, and then treated complete medium containing 0.1% DMSO, various concentrations (0.1, 1 and 10 μM) of either compound e4 or e12 for 2 h, respectively. […] Then the H460 cells were treated with complete medium containing EGF (10 ng/ml) for 5 min. Then the cells were harvested and washed with PBS, centrifuged, resuspended in 100–200 μl of RIPA lysis buffer containing Protease and Phosphatase Inhibitor Cocktail (1X), and then centrifuged for 5 min at 12,000 rpm at 4°C. The supernatant was used for protein analysis. […] Then the membrane was washed 5 min (X3) and incubated at 1:3,000 dilution of anti-rabbit secondary antibodies or 1:1,000 dilution of anti-mouse secondary antibodies for 1 h at RT. After washing with TBST 5 min (X3), protein bands were developed by chemiluminescence. The protein levels were quantified by the gray values of the bands in the resulting images by ImageJ, and the control group was used as the standard. […] The PC-9 cells were harvested and analyzed as above.
# A549 cells = test: CCK-8 antiproliferation assay, A549; details: for Inhibitory efficacy: A549 cells
# Protocol: The compounds were dissolved in DMSO to make a 20 μM stock solution and diluted to the concentration of working solutions with complete growth medium before administration.
# Cells were seeded in 96-well plates: 3,000–5,000 cells/well in 100 ul. One day after seeding, the test compounds at concentration between 1.0 and 16.0 μ M or 0.1% DMSO (as control) were added to cells in triplicate. 48 h later, CCK-8 was added and incubated the plate for 1–4 h in the incubator. The absorbance at 450 nm were measured using a microplate reader (Bio-Tek).
# [2] = tested on: AKT phosphorylation (S473) in H460 cells; test: Western blot, p-AKT/AKT in H460; details: for p-AKT/AKT: band density ratio; for p-AKT/AKT relative to DMSO: ratio normalised to DMSO
# Protocol: as §1, §2
# [3] = tested on: CCND1, CCNA2, CCNB1, CDK2, CDK6 RNA in PC-9 cells; test: qPCR assay for cell cycle-related gene analysis; assay type: cell-based, human; details: for CCNB relative mRNA expression (2^-ddCt vs NC, normalised to beta-Actin) / CCND1 relative mRNA expression (2^-ddCt vs NC, normalised to beta-Actin) / CDK6 relative mRNA expression (2^-ddCt vs NC, normalised to beta-Actin): qPCR SYBR_GREEN, NC = 1; for RQ: endogenous control b-Actin, reference sample NC; for 2^ΔΔCт CCNA / 2^ΔΔCт CCNB / 2^ΔΔCт CCND1 / 2^ΔΔCт CDK2 / 2^ΔΔCт CDK6: Repeat 1-3, relative to NC = 1
# Source text: To better understand the mechanisms underlying cell cycle arrest induced by e4 and e12 in NSCLC cells, we assessed the expression levels of a few genes involved in cell cycle regulation, including cyclin D1 (CCND1), cyclin A2 (CCNA2), cyclin B1 (CCNB1), cyclin-dependent kinase 2 (CDK2), and cyclin-dependent kinase 6 (CDK6) in PC-9 by qPCR. […] CCNA2 is known to bind and activate CDK2 and thus promotes the transition through G1/S and G2/M. CCNB1 and CCND1 are essential to mitosis and G1/S transition respectively. While G2/M arrest weas not detected, the changes in these gene expression profiles interpret the G1/S arrests in PC-9 cells treated with e4 and e12. PC-9 cells exposed to the compounds for various periods should be examined further.
# Total RNA of cells was extracted and cDNA was synthesized. The primers for the target products were designed as in Table 3.
compound,measurement,setting,value
"COCCOc1cc2ncnc(Nc3cccc(-c4cn(Cc5cc(Br)cc(Br)c5)nn4)c3)c2cc1OCCOC [e4, [6,7-Bis-(2-methoxy-ethoxy)-quinazolin-4-yl]-{3-[1-(3,5-dibromo-benzyl)-1H-[1,2,3]triazol-4-yl]-phenyl}-amine]",p-AKT/AKT,"[1]; PC-9, 0.1 uM",0.8512
same,p-AKT/AKT relative to DMSO,"[1]; PC-9, 0.1 uM",0.8172
same,p-AKT/AKT,"[1]; PC-9, 1 uM",0.7155
same,p-AKT/AKT relative to DMSO,"[1]; PC-9, 1 uM",0.6869
same,p-AKT/AKT,"[1]; PC-9, 10 uM",0.5338
same,p-AKT/AKT relative to DMSO,"[1]; PC-9, 10 uM",0.5125
same,phosphorylation of AKT (western blot),"[1]; PC-9, especially at 10 μM",suppressed
same,Inhibitory efficacy,"A549 cells; 4uM, given as fraction, Repeat 1-3",0.2144 and 0.2227
same,Inhibitory efficacy,"A549 cells; 8uM, given as fraction, Repeat 1-3",0.7075 and 0.6166
same,Inhibitory efficacy,"A549 cells; 16uM, given as fraction, Repeat 1-3",0.9444 and 0.9355
same,IC50,"A549 cells; Homo sapiens, A549, 48 h, read-out: IC50 (μM) A549, CCK-8, 48 h, average ± SD of three independent experiments",< 10 µM
same,inhibition at 4 µM,"A549 cells; Homo sapiens, A549, read-out: Inhibitory efficacy, A549 cells, 4uM, given as fraction, Repeat 1-3",35.6%
same,inhibition at 8 µM,"A549 cells; Homo sapiens, A549, read-out: Inhibitory efficacy, A549 cells, 8uM, given as fraction, Repeat 1-3",75.6%
same,inhibition at 16 µM,"A549 cells; Homo sapiens, A549, read-out: Inhibitory efficacy, A549 cells, 16uM, given as fraction, Repeat 1-3",94.8%
same,IC50,"A549 cells; read-out: IC50 (μM) A549, CCK-8, 48 h, average ± SD of three independent experiments",5.8 ± 0.78 µM
same,p-AKT/AKT,"[2]; H460, 0.1 uM",1.245
same,p-AKT/AKT relative to DMSO,"[2]; H460, 0.1 uM",1.252
same,p-AKT/AKT,"[2]; H460, 1 uM",0.733
same,p-AKT/AKT relative to DMSO,"[2]; H460, 1 uM",0.7369
same,p-AKT/AKT,"[2]; H460, 10 uM",1.039
same,p-AKT/AKT relative to DMSO,"[2]; H460, 10 uM",1.044
same,phosphorylation of AKT (western blot),"[2]; H460, especially at 10 μM",suppressed
same,"CCNB relative mRNA expression (2^-ddCt vs NC, normalised to beta-Actin)",[3]; 4uM,0.8081
same,"CCNB relative mRNA expression (2^-ddCt vs NC, normalised to beta-Actin)",[3]; 8uM,0.7848
same,"CCND1 relative mRNA expression (2^-ddCt vs NC, normalised to beta-Actin)",[3]; 8uM,0.7172
same,"CDK6 relative mRNA expression (2^-ddCt vs NC, normalised to beta-Actin)",[3]; 8uM,0.824
same,"CCNB relative mRNA expression (2^-ddCt vs NC, normalised to beta-Actin)",[3]; 12uM,0.736
same,"CCND1 relative mRNA expression (2^-ddCt vs NC, normalised to beta-Actin)",[3]; 12uM,0.6074
same,"CDK6 relative mRNA expression (2^-ddCt vs NC, normalised to beta-Actin)",[3]; 12uM,1.051
same,RQ,"[3]; CCNA mRNA, 4uM",0.764
same,RQ,"[3]; CCNA mRNA, 8uM",0.7042
same,RQ,"[3]; CCNA mRNA, 12uM",0.7817
same,2^ΔΔCт CCNA,[3]; 4uM,0.7613 and 0.8165 and 0.764
same,2^ΔΔCт CCNA,[3]; 8uM,0.7109 and 0.778 and 0.7042
same,2^ΔΔCт CCNA,[3]; 12uM,0.5857 and 0.5446 and 0.7817
same,RQ,"[3]; CCNB mRNA, 4uM",0.9138
same,RQ,"[3]; CCNB mRNA, 8uM",0.7783
same,RQ,"[3]; CCNB mRNA, 12uM",1.003
same,2^ΔΔCт CCNB,[3]; 4uM,0.8081 and 0.8617 and 0.9138
same,2^ΔΔCт CCNB,[3]; 8uM,0.7848 and 0.9105 and 0.7783
same,2^ΔΔCт CCNB,[3]; 12uM,0.736 and 0.7897 and 1.003
same,2^ΔΔCт CCND1,"[3]; CCND1, 4uM",0.8337 and 1.076 and 0.8297
same,2^ΔΔCт CCND1,"[3]; CCND1, 8uM",0.7172 and 1.068 and 0.8923
same,2^ΔΔCт CCND1,"[3]; CCND1, 12uM",0.6074 and 0.7441 and 0.7112
same,2^ΔΔCт,"[3]; CCND1, 12uM, normalized to WT (NC), run 20201020-2",0.7112
same,RQ,"[3]; CCND1 mRNA, 4uM",0.8297
same,RQ,"[3]; CCND1 mRNA, 8uM",0.8923
same,RQ,"[3]; CCND1 mRNA, 12uM",0.7112
same,2^ΔΔCт CDK2,"[3]; CDK2, 4uM",1.17 and 1.2056 and 1.028
same,2^ΔΔCт CDK2,"[3]; CDK2, 8uM",1.1688 and 1.551 and 1.159
same,2^ΔΔCт CDK2,"[3]; CDK2, 12uM",0.9257 and 1.095 and 1.173
same,RQ,"[3]; CDK2 mRNA, 4uM",1.028
same,RQ,"[3]; CDK2 mRNA, 8uM",1.159
same,RQ,"[3]; CDK2 mRNA, 12uM",1.173
same,2^ΔΔCт CDK6,"[3]; CDK6, 4uM",0.8111 and 1.387 and 0.8685
same,2^ΔΔCт CDK6,"[3]; CDK6, 12uM",1.051 and 1.348 and 1.109
same,RQ,"[3]; CDK6 mRNA, 4uM",0.8685
